For 98 compounds, cytotoxicity results are on record in ChEMBL document CHEMBL3507680, “University of Dundee, Gates Library screen for HepG2 cell viability”.

SMILES strings stand for the structures.

The nature of the data set: Human HepG2 cell viability assay in 384 well format. In kind it is toxicity, cell-based. On the set-up: dose 125 nL, time 70.5 hour; cytotoxicity at 70.5 h: concentration not given beside the values. Particulars: HepG2 cells, read-out: Inhibition.
Consider `Cc1noc(C(C)N2CCN(CCCN3CCCC3=O)CC2)n1` (stereo not drawn), for which the cytotoxicity at 70.5 h was -11.4%. With `CNc1ccnc(N2CCCC(C(=O)c3ccccn3)C2)n1` (stereo not drawn), the cytotoxicity at 70.5 h turned out to be 24.1%. In the case of `COc1ncccc1NC(=O)N(CC(C)C)C1CC1`, the cytotoxicity at 70.5 h is -8.09%. Next, `COc1cccc2c1OCC(C(=O)N1CCN(C3CCCC3)C(=O)C1)C2` (stereo not drawn): -5.59%. Next, `CCCn1ncc(CN2CCCC(C(=O)c3ccc(SC)cc3)C2)c1C` (stereo not drawn): -9.31%.

In the case of `CN(Cc1ccco1)Cc1ccccc1CNC(=O)c1csnn1`, the cytotoxicity at 70.5 h is -1.62%. Next, `COc1ccccc1C(=O)NCc1n[nH]c(C)n1`: 0.0224%; `Cc1cc(C(=O)N2CCc3ncc(CN4CCCC4)n3CC2)no1`: -11%; `CN(CCCc1ccccc1)C(=O)c1cn2c(n1)CNCC2`: -3.6%. Next, `Cc1ccc(CNC(=O)c2ccc(S(=O)(=O)N3C[C@@H]4C[C@H]3CN4)cc2)o1`: -2.7%; `CC(C)=CCN1CCN(C(=O)c2cc(C(C)C)on2)[C@H]2CS(=O)(=O)C[C@H]21`: -8.01%; `Cc1c(CC(=O)N2CCN(C(C)C)CC2)nnn1-c1ccccc1`: 23.6%. For `CC(C)c1noc(CCCC(=O)NC(C)c2ccccn2)n1` (stereo not drawn), the cytotoxicity at 70.5 h was -9.67%. Next, `Cc1nnc(N2CCCC3(CN(Cc4ccc(C)s4)CCO3)C2)o1` (stereo not drawn): -8.9%. Next, `Cc1ccc2c(c1)C1(CCN(C(N)=O)CC1)CN2C(=O)N(C)C`: -7.46%; `O=C(O)c1ccccc1C1CCN(C2CCN(c3ccccc3)CC2)C1` (stereo not drawn): 0.408%.

Regarding `COc1ccc(NC(=O)Cn2cc(-c3ccccc3)ncc2=O)cn1`, the cytotoxicity at 70.5 h was -6.77%.

Regarding `COC(=O)CC(NC(=O)CCCn1cccn1)c1ccc(Cl)cc1` (stereo not drawn), the cytotoxicity at 70.5 h is -14.1%.

For the compound `CS(=O)(=O)N1CCOCC2(CCN(c3cnccn3)CC2)C1`, the cytotoxicity at 70.5 h is -7.29%. Next, `Cc1cnn(CCC(=O)N2CCOC(c3nc(C(C)(C)C)n[nH]3)C2)c1` (stereo not drawn): 15.8%. For the compound `CCOC(=O)C1=NOC(Cc2cc(OC)c3c(c2)OCO3)C1` (stereo not drawn), the cytotoxicity at 70.5 h was 18.8%. Next, `COc1ncccc1NC(=O)NCC(O)c1ccc(F)cc1F` (stereo not drawn): -1.05%; `O=C(NCCN1CCCCCC1=O)c1ccc(=O)[nH]n1`: 2.56%; `Cc1cc(C(C)NC(=O)c2ccc(O)nc2)c(C)o1` (stereo not drawn): 2.4%. Next, `Cn1cc(-c2cc(C(F)(F)F)n(CCCN)n2)cn1`: 20%. With `CO[C@H]1CN(Cc2cc(F)ccc2F)CC[C@@]12CCCO2`, the cytotoxicity at 70.5 h is -2.25%. Next, `O=C1CCC2(CCN(Cc3cscn3)CC2)CN1CCCO`: -8.82%. As for `Cc1ccc(S(=O)(=O)NCC2COCc3c(C)nnn3C2)cc1F` (stereo not drawn), the cytotoxicity at 70.5 h came to 7.81%. Next, `NC(=O)C1CCN(C(=O)NC2CCc3cc(Cl)ccc32)CC1` (stereo not drawn): -7.29%. In the case of `CC(C)Oc1cccc(CN(C)C(=O)Cc2ccon2)c1`, the cytotoxicity at 70.5 h came out at 4.02%. As for `O=C(NCC1OCCc2cn(CC3CCOCC3)nc21)c1ccsc1` (stereo not drawn), the figure is 5%. Next, `Cc1nc(CNC(C(=O)N2CCOCC2)C(C)C)no1` (stereo not drawn): -6.16%. In the case of `Cc1cccc(N2CCOC(C(=O)O)C2)c1` (stereo not drawn), the cytotoxicity at 70.5 h is -6.1%. In the case of `COCC1CN(C(=O)Nc2cc(C(F)(F)F)ccc2F)CCO1` (stereo not drawn), the cytotoxicity at 70.5 h was -5.23%. As for `Cc1cnc(N2CC[C@@H]3CN(CCC(C)C)S(=O)(=O)[C@@H]3CC2)nc1`, the figure is -1.61%; as for `CSCC(=O)N(C)Cc1ccccc1`, -6.59%. As for `CN1Cc2ccccc2CC2(CCN(c3ncc(F)cn3)CC2)C1=O`, the figure is -12.1%.

As to `Cc1cc(NC2CCc3ncnn3C2)n2ncnc2n1` (stereo not drawn), the cytotoxicity at 70.5 h is -106%. As for `CCOC(C)c1nc(Cn2cc(-n3cccc3)cn2)cs1` (stereo not drawn), the figure is -10.1%; as for `Cc1ccc(CN2CC3(CCN(C(=O)c4cccnc4)C3)C2)o1`, 3.03%. Take `CCn1ncc2c1C(COC)N(C(=O)c1cscn1)CC2` (stereo not drawn): the cytotoxicity at 70.5 h came to 6.98%.

As to `NC(=O)Cn1c(CO)cnc1SCC(=O)NCc1ccccc1Cl`, the cytotoxicity at 70.5 h is 15.7%.

For the compound `Cc1sc2nc(SC(C)c3nc(C(C)C)no3)nc(N)c2c1C` (stereo not drawn), the cytotoxicity at 70.5 h stood at 3.75%. As for `CC(C)=CCN1C[C@@H]2CN(C(=O)c3ccc(CO)cc3)C[C@]2(C(=O)O)C1`, the figure is -12.2%; as for `COc1cccc(CC(=O)N2CCCC2c2nc(C)c(C)c(O)n2)c1` (stereo not drawn), -2.86%. Next, `O=C(CC1CC1)N1C[C@@H](O)[C@H](N2CCN(c3ccccc3)CC2)C1`: 22.4%. As for `CO[C@H]1CCN(c2ncccn2)[C@H]1Cc1ccccc1`, the figure is -6.47%; as for `CN1C(=O)C2(CCN(CC3CCC3)C2)c2ccccc21` (stereo not drawn), 9.83%; as for `COc1c(C2CCCN2C(=O)c2sccc2C#N)c(C)nn1C` (stereo not drawn), -5.44%. Take `Cc1cccc(CN2C(=O)CCC23CCN(C(=O)N2CCCC2)CC3)n1`: the cytotoxicity at 70.5 h came to 0.698%. Next, `CC(=O)c1cc(CN2C[C@H]3CC[C@@H]2CN(S(=O)(=O)N(C)C)C3)cs1`: 12.5%; `Cn1ccc(C(=O)N2CCCC(Cc3cccc4ncccc34)C2)n1` (stereo not drawn): 35.2%.

In the case of `CN(Cc1ccncc1)C(=O)CCNS(=O)(=O)c1cccnc1`, the cytotoxicity at 70.5 h came to 2.92%. Next, `CCC(=O)NC1CCCN(Cc2ccc(NC(C)=O)cc2)C1` (stereo not drawn): -4.65%. Turning to `COc1cccc(-c2nc(CC(=O)NC3(C)CCS(=O)(=O)C3)cs2)c1` (stereo not drawn), the cytotoxicity at 70.5 h was -8.05%.

With `C=C(C)COc1cccc(C(=O)N2CCC3(CC2)CN(C)CCN3C)c1`, the cytotoxicity at 70.5 h is -7.19%. Next, `Cc1cnn(CCNCc2c(C)nn(Cc3ccccc3)c2C)c1`: 23.6%. As for `CN(Cc1ccc(F)cc1)CC1(O)CCN(C(=O)c2cccs2)C1` (stereo not drawn), the figure is 2.73%. As for `COCCC1(CO)CCCN(Cc2ccc(C(F)(F)F)cc2)C1` (stereo not drawn), the figure is -4.92%; as for `CCOCCOC(C)C(=O)Nc1ccnn1-c1ccccc1C` (stereo not drawn), -4.2%. Regarding `Cc1noc([C@@H]2C[C@H]3OCC[C@H]3N(Cc3cc(C)c(C)o3)C2)n1`, the cytotoxicity at 70.5 h is -6.09%. Next, `O=C1CNCC(C(=O)N2CC(Oc3ccccc3Cl)C2)N1` (stereo not drawn): -7.25%.

Take `Cc1ccc(CN2C[C@@H](OCc3csc(C)n3)[C@H]3COC[C@H]32)s1`: the cytotoxicity at 70.5 h is -10.6%.

Regarding `O=C(Cn1c(=O)n(Cc2ccco2)c2ncccc21)Nc1ccccn1`, the cytotoxicity at 70.5 h is -4.41%.

On to `O=C([C@H]1C[C@@H]2CCN(C3CCOCC3)C[C@@H]2O1)N1CCOCC1`, for which the cytotoxicity at 70.5 h was -5.58%. Next, `CCc1nnc2n1CCN(C(=O)c1ccc3c(c1)nnn3C)C2`: -0.825%; `COc1cccc(-c2cc(NCCN(C)C)nc3[nH]ccc23)n1`: -6.53%. As for `Cc1ccnc(NCCNC(=O)Cc2c(C)[nH]c3c(C)ccc(C)c23)c1`, the figure is 34.5%; as for `Cn1ccnc1CNC(=O)N1CCCC(Cc2nccn2C)C1` (stereo not drawn), 2.69%; as for `CCc1cnccc1C(=O)NC1CCN(C(=O)OC)CC1`, 24.5%.

For the compound `Cc1noc([C@@H]2CC[C@@H]3[C@@H](CCN3S(=O)(=O)C3CC3)O2)n1`, the cytotoxicity at 70.5 h worked out at 2.67%.

Turning to `CNC(=O)c1cnc(/C=C/c2ccc(O)c(OC)c2)s1`, the cytotoxicity at 70.5 h was -14.3%. With `COc1cc(C(=O)Nc2cn[nH]c2)ccc1C`, the cytotoxicity at 70.5 h was -7%. As for `COc1cccc(-c2nc(C)c(C(=O)NC(CO)CCSC)s2)c1` (stereo not drawn), the figure is -25%; as for `Cc1ncsc1C(=O)N1CCC(c2ccc3c(NC(C)C)n[nH]c3n2)C1` (stereo not drawn), -15.9%; as for `COCCN1C[C@@H](C)[C@@]2(COCCN(C(=O)c3ccccn3)C2)C1`, -4.02%. Next, `O=C(c1cc(=O)[nH]c(=O)[nH]1)N1CCCCC1c1ccc(F)cc1` (stereo not drawn): -6.94%. On to `Cc1nc(CN2CCN(C(C)c3nc(C4CC4)no3)CC2)no1` (stereo not drawn), for which the cytotoxicity at 70.5 h was -4.1%. As for `CN1CCN(Cc2noc(-c3cc(-c4ccc(F)cc4)n[nH]3)n2)CC1`, the figure is 31.6%; as for `Cc1nc(C(C)(C)NC(=O)Nc2ccncc2)no1`, -0.296%; as for `OCc1c(Cl)ncn1-c1ccccc1`, 0.513%.

For the compound `CCC(CC)(CN)NC(C)c1ccccc1` (stereo not drawn), the cytotoxicity at 70.5 h is -7.08%.

For the compound `OC1(CNc2ccc(F)cc2)CCNCC1`, the cytotoxicity at 70.5 h is -7.97%.

Take `O=C(CC1CC1)N1CCC2(CC1)CN(c1cccnc1)C(=O)CO2`: the cytotoxicity at 70.5 h was -4.69%.

With `O=C(Nc1ccccn1)N(CCO)Cc1ccsc1`, the cytotoxicity at 70.5 h is 4.99%. Consider `COCCN1C[C@@H]2[C@@H](OC)CCN(Cc3ccc(C)o3)[C@@H]2C1`, for which the cytotoxicity at 70.5 h is -1.05%. In the case of `CCC1(C(=O)O)CCCN(CCOCc2ccccc2)C1` (stereo not drawn), the cytotoxicity at 70.5 h was -9.39%. On to `O=S1(=O)C[C@@H]2[C@H](C1)N(Cc1ncc[nH]1)CCN2CCCc1ccccc1`, for which the cytotoxicity at 70.5 h was -1.68%. Next, `CN(Cc1ccco1)C[C@H]1OC[C@@H]2CCN(Cc3ccsc3)C[C@@H]21`: -7.38%. Next, `O=C(O)c1csc(S(=O)(=O)Nc2cccc(OC(F)F)c2)c1`: -12.7%. For the compound `CCC(C)Oc1cc(C(=O)Nc2nc(C)ns2)ccn1` (stereo not drawn), the cytotoxicity at 70.5 h was -0.392%. As for `Fc1ccc2[nH]c(CO[C@H]3CN(CC4CC4)C[C@H]3F)nc2c1`, the figure is 1.66%; as for `Fc1cccc(N2CCc3ncnc(C4CC4)c3CC2)c1`, -4.85%; as for `Cc1nn(C)c2c(=O)n(CC(=O)NCCC(C)C)ccc12`, -5.71%. As for `Cc1cnn(CC(C)NCc2nc(-c3cccs3)no2)c1` (stereo not drawn), the figure is -7.53%; as for `Cn1cccc1C(=O)OCCNC(=O)c1ccccc1`, -10.7%; as for `Cc1ccc(NC(=O)CS(=O)(=O)NC2CCC(C)CC2)nc1` (stereo not drawn), -2.47%. Next, `COc1cccc2cc(CNC(=O)N3CCC(N4CCCC4)C3)oc12` (stereo not drawn): -4.76%.
